Laboratory results from patent publication US12281149B2, “Modulators of G-protein coupled receptors” (priority 2021, dated 2025).
*1 amine or outer side, *2 acyl side, *3 side chain or, on linkers, in order; H or OH if unused. Where a SMILES comes first, the peptide text is derived from it. Side-chain parts run from the residue outwards. [ ]: non-standard residue; d: D form. The star is where a group is joined. Isobutyryl(2-(3-CN-5-F-Ph)) = CC(C)(C(=O)*)c1cc(F)cc(C#N)c1; C20 diacid = O=C(O)CCCCCCCCCCCCCCCCCCC(=O)*; αMePhe(2-F) = C[C@](N)(Cc1ccccc1F)C(=O)O; βPro(3S) = O=C([C@H]1CCN([*:1])C1)[*:2]; γGlu = O=C(O)[C@H](CCC(=O)[*:2])N[*:1]; X62 = O=C(C1(c2cccc(Cl)c2)CCCC1)*; X64 = CC(C)(C(=O)*)c1ccccn1; AEEA = NCCOCCOCC(=O)O; Aib = CC(C)(N)C(=O)O; βAla = NCCC(=O)O

Legend:
Format in all cases: cell-based
[1] = target: T1, GIP receptor (Homo sapiens, UniProt P48546); experiment: PathHunter β-arrestin assay, GIP receptor; set-up: host or cells: PathHunter CHO-K1 GIPR β-Arrestin Cell Line; settings: β-arrestin-2 recruitment, PathHunter CHO-K1 GIPR β-Arrestin Cell Line, 90 min at 37° C.; normalized to GIP; read-out: GIPR β Arrestin EC50
T1 sequence (P48546 22-466): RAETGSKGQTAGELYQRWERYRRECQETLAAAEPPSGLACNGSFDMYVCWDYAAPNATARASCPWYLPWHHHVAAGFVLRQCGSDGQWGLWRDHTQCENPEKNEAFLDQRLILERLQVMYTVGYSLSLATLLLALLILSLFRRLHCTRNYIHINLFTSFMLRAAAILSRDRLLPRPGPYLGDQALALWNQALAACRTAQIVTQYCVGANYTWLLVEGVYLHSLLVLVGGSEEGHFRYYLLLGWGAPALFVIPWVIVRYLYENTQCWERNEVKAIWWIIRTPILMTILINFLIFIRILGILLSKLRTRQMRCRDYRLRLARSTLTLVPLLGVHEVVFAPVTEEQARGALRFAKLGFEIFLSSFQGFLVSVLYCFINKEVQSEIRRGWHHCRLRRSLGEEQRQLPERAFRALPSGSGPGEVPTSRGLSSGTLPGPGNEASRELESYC

[2] = target: T1, GIP receptor; experiment: HitHunter cAMP assay, GIP receptor; settings: for EC50: CHO cells stably expressing GIP receptor, cAMP accumulation, 30 min, read-out: EC50 GIP-1R; for Emax: CHO cells, cAMP, normalized to maximum signal from GIP (high) and DMSO (low), read-out: Emax GIP-1R
[3] = target: T2, GLP-1 receptor (Homo sapiens, UniProt P43220); experiment: HitHunter cAMP assay, GLP-1 receptor; settings: for EC50: CHO cells stably expressing human GLP-1 receptor, cAMP accumulation, 30 min, read-out: EC50 GLP-1R; for Emax: CHO cells, cAMP, normalized to maximum signal from GLP-1 (high) and DMSO (low), read-out: Emax GLP-1R
[4] = target: T2, GLP-1 receptor; experiment: PathHunter β-arrestin assay, GLP-1 receptor; set-up: host or cells: PathHunter CHO-K1 GLP1R β-Arrestin Cell Line; settings: β-arrestin-2 recruitment, PathHunter CHO-K1 GLP1R β-Arrestin Cell Line, 90 min at 37° C.; normalized to GLP-1; read-out: GLP-1R β Arrestin EC50

T2 sequence (P43220 24-463): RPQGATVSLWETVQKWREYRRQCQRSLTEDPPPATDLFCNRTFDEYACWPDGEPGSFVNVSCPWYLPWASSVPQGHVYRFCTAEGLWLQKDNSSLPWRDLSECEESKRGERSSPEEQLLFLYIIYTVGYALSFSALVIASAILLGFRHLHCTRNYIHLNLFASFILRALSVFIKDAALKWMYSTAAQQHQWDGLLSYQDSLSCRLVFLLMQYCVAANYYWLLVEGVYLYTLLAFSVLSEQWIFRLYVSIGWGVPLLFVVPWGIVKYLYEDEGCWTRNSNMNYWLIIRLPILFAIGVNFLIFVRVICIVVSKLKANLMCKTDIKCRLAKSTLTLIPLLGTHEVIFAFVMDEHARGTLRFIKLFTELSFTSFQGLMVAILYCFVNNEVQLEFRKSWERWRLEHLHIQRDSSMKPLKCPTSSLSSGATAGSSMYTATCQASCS

Structure (SMILES)	EC50 [1]	EC50 [2]	Emax [2]	EC50 [3]	Emax [3]	EC50 [4]
CC[C@H](C)[C@H](NC(=O)[C@H](CC(C)C)NC(=O)[C@H](Cc1c[nH]c2ccccc12)NC(=O)[C@H](CCC(N)=O)NC(=O)[C@@H](NC(=O)[C@H](Cc1ccccc1)NC(=O)[C@H](C)NC(=O)[C@H](CCCCNC(=O)COCCOCCNC(=O)COCCOCCNC(=O)CC[C@H](NC(=O)CCCCCCCCCCCCCCCCCCC(=O)O)C(=O)O)NC(=O)[C@H](CCC(N)=O)NC(=O)[C@H](C)NC(=O)[C@@H](NC(=O)[C@H](CCCCN)NC(=O)[C@H](CC(=O)O)NC(=O)[C@H](CC(C)C)NC(=O)C(C)(C)NC(=O)[C@@H](NC(=O)[C@H](CO)NC(=O)[C@H](Cc1ccc(O)cc1)NC(=O)[C@H](CC(=O)O)NC(=O)[C@H](CO)NC(=O)[C@@H](NC(=O)[C@](C)(Cc1ccccc1F)NC(=O)[C@@H](NC(=O)CNC(=O)[C@H](CCC(=O)O)NC(=O)CCNC(=O)C1(c2cccc(Cl)c2)CCCC1)[C@@H](C)O)[C@@H](C)O)[C@@H](C)CC)[C@@H](C)CC)C(C)C)C(=O)N[C@@H](C)C(=O)NCC(=O)NCC(=O)N1CCC[C@H]1C(=O)N[C@@H](CO)C(=O)N[C@@H](CO)C(=O)NCC(=O)N[C@@H](C)C(=O)N1CCC[C@H]1C(=O)N1CCC[C@H]1C(=O)N1CCC[C@H]1C(=O)N[C@@H](CO)C(N)=O [Compound 179] ({X62-βAla}-EGT[αMePhe(2-F)]TSDYSI[Aib]LDKIAQK([AEEA-AEEA-γGlu-C20 diacid])AFVQWLIAGGPSSGAPPPS-NH2)	< 1000 nM	0.1 to 1 nM	106%	0.1 to 1 nM	100%	> 1000 nM
CC[C@H](C)[C@H](NC(=O)[C@H](CO)NC(=O)[C@H](Cc1ccc(O)cc1)NC(=O)[C@H](CC(=O)O)NC(=O)[C@H](CO)NC(=O)[C@@H](NC(=O)[C@H](Cc1ccccc1)NC(=O)[C@@H](NC(=O)CNC(=O)[C@H](CCC(=O)O)NC(=O)CCNC(=O)C(C)(C)c1cc(F)cc(C#N)c1)[C@@H](C)O)[C@@H](C)O)C(=O)N[C@@H](Cc1ccc(O)cc1)C(=O)N[C@@H](CC(C)C)C(=O)N[C@@H](CC(=O)O)C(=O)N[C@@H](CCCCN)C(=O)N[C@@H](CCC(N)=O)C(=O)N[C@@H](C)C(=O)N[C@@H](C)C(=O)NC(C)(C)C(=O)N[C@@H](CCC(=O)O)C(=O)N[C@@H](Cc1ccccc1)C(=O)N[C@H](C(=O)N[C@@H](CCCCNC(=O)COCCOCCNC(=O)COCCOCCNC(=O)CC[C@H](NC(=O)CCCCCCCCCCCCCCCCCCC(=O)O)C(=O)O)C(=O)N[C@@H](Cc1c[nH]c2ccccc12)C(=O)N[C@@H](CC(C)C)C(=O)N[C@@H](CC(C)C)C(=O)N[C@@H](C)C(=O)NCC(=O)NCC(=O)N1CCC[C@H]1C(=O)N[C@@H](CO)C(=O)N[C@@H](CO)C(=O)NCC(=O)N[C@@H](C)C(=O)N1CCC[C@H]1C(=O)N1CCC[C@H]1C(=O)N1CCC[C@H]1C(=O)N[C@@H](CO)C(N)=O)C(C)C [Compound 103] ({Isobutyryl(2-(3-CN-5-F-Ph))-βAla}-EGTFTSDYSIYLDKQAA[Aib]EFVK([AEEA-AEEA-γGlu-C20 diacid])WLLAGGPSSGAPPPS-NH2)	> 1000 nM	10 to 100 nM	96%	0.1 to 1 nM	89%	> 1000 nM
CC[C@H](C)[C@H](NC(=O)[C@H](CC(C)C)NC(=O)[C@H](Cc1c[nH]c2ccccc12)NC(=O)[C@H](CCC(N)=O)NC(=O)[C@@H](NC(=O)[C@H](Cc1ccccc1)NC(=O)[C@H](C)NC(=O)[C@H](CCCCNC(=O)COCCOCCNC(=O)COCCOCCNC(=O)CC[C@H](NC(=O)CCCCCCCCCCCCCCCCCCC(=O)O)C(=O)O)NC(=O)[C@H](CCC(N)=O)NC(=O)[C@H](C)NC(=O)[C@@H](NC(=O)[C@H](CCCCN)NC(=O)[C@H](CC(=O)O)NC(=O)[C@H](CC(C)C)NC(=O)C(C)(C)NC(=O)[C@@H](NC(=O)[C@H](CO)NC(=O)[C@H](Cc1ccc(O)cc1)NC(=O)[C@H](CC(=O)O)NC(=O)[C@H](CO)NC(=O)[C@@H](NC(=O)[C@H](Cc1ccccc1)NC(=O)[C@@H](NC(=O)CNC(=O)[C@H](CCC(=O)O)NC(=O)[C@H]1CCN(C(=O)C(C)(C)c2cc(F)cc(C#N)c2)C1)[C@@H](C)O)[C@@H](C)O)[C@@H](C)CC)[C@@H](C)CC)C(C)C)C(=O)N[C@@H](C)C(=O)NCC(=O)NCC(=O)N1CCC[C@H]1C(=O)N[C@@H](CO)C(=O)N[C@@H](CO)C(=O)NCC(=O)N[C@@H](C)C(=O)N1CCC[C@H]1C(=O)N1CCC[C@H]1C(=O)N1CCC[C@H]1C(=O)N[C@@H](CO)C(N)=O [Compound 195] ({Isobutyryl(2-(3-CN-5-F-Ph))}-[βPro(3S)]EGTFTSDYSI[Aib]LDKIAQK([AEEA-AEEA-γGlu-C20 diacid])AFVQWLIAGGPSSGAPPPS-NH2)	> 1000 nM	100 to 1000 nM	72%	100 to 1000 nM	51%	> 1000 nM
CC[C@H](C)[C@H](NC(=O)[C@H](CC(C)C)NC(=O)[C@H](Cc1c[nH]c2ccccc12)NC(=O)[C@H](CCC(N)=O)NC(=O)[C@@H](NC(=O)[C@H](Cc1ccccc1)NC(=O)[C@H](C)NC(=O)[C@H](CCCCNC(=O)COCCOCCNC(=O)COCCOCCNC(=O)CC[C@H](NC(=O)CCCCCCCCCCCCCCCCCCC(=O)O)C(=O)O)NC(=O)[C@H](CCC(N)=O)NC(=O)[C@H](C)NC(=O)[C@@H](NC(=O)[C@H](CCCCN)NC(=O)[C@H](CC(=O)O)NC(=O)[C@H](CC(C)C)NC(=O)C(C)(C)NC(=O)[C@@H](NC(=O)[C@H](CO)NC(=O)[C@H](Cc1ccc(O)cc1)NC(=O)[C@H](CC(=O)O)NC(=O)[C@H](CO)NC(=O)[C@@H](NC(=O)[C@H](Cc1ccccc1)NC(=O)[C@@H](NC(=O)CNC(=O)[C@H](CCC(=O)O)NC(=O)CCNC(=O)C(C)(C)c1ccccn1)[C@@H](C)O)[C@@H](C)O)[C@@H](C)CC)[C@@H](C)CC)C(C)C)C(=O)N[C@@H](C)C(=O)NCC(=O)NCC(=O)N1CCC[C@H]1C(=O)N[C@@H](CO)C(=O)N[C@@H](CO)C(=O)NCC(=O)N[C@@H](C)C(=O)N1CCC[C@H]1C(=O)N1CCC[C@H]1C(=O)N1CCC[C@H]1C(=O)N[C@@H](CO)C(N)=O [Compound 237] ({X64-βAla}-EGTFTSDYSI[Aib]LDKIAQK([AEEA-AEEA-γGlu-C20 diacid])AFVQWLIAGGPSSGAPPPS-NH2)	< 1000 nM	1 to 10 nM	91%	< 0.1 nM	93%	> 1000 nM
